Test results published in patent US12486267B2, “Imidazo[1,2-A]pyridine and [1,2,4]triazolo[1,5-A]pyridine derivatives as TLR9 inhibitors for the treatment of fibrosis” (BRISTOL-MYERS SQUIBB COMPANY, priority 2020, dated 2025).

Key:
Type in all cases: cell-based
human TLR8 = target: T1, human TLR8 (Homo sapiens, UniProt Q9NR97); assay: TLR8 inhibition reporter assay (HEK-Blue cells, SEAP reporter); details: HEK-Blue cells overexpressing human TLR8; stimulated with R848 15.9 μM; 22 hour incubation; SEAP readout
T1 sequence (Q9NR97 27-1041): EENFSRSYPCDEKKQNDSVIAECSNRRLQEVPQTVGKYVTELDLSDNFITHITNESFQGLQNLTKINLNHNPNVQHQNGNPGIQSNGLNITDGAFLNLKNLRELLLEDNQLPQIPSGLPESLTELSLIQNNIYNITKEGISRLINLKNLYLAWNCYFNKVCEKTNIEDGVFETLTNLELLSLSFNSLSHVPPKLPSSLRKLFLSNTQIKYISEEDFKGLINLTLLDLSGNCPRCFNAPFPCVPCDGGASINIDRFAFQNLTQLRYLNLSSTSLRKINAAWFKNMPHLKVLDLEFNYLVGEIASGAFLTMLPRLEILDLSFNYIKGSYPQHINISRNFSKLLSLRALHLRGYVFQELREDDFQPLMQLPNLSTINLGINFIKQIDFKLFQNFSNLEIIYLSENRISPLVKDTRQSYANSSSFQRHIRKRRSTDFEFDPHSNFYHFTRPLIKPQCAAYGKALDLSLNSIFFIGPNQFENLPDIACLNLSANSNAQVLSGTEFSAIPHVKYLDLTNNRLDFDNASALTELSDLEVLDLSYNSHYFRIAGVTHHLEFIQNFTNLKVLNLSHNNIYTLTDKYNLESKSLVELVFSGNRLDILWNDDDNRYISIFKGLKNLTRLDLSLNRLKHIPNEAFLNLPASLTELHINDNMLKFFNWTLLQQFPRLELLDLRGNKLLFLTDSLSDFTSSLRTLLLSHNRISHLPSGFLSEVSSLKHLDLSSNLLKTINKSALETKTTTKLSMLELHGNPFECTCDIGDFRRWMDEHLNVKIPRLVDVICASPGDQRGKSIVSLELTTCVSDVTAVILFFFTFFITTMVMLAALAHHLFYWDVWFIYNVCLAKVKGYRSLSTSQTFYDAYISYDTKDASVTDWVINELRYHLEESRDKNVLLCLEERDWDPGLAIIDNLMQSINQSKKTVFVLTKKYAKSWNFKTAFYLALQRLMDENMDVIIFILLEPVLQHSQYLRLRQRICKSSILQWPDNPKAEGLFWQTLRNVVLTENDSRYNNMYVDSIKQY
How it was run: (§1)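 HEK-Blue cells with an NF-κB/AP-1-driven SEAP reporter were pre-treated 30 min at room temperature with compound (0.05 nM–50 μM), then stimulated with gardiquimod 7.5 μM (TLR7), R848 15.9 μM (TLR8) or ODN2006 5 nM (TLR9). After 22 h at 37 °C, SEAP was read; % inhibition was referenced to agonist+DMSO and known-inhibitor wells.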

human TLR7 = target: T2, human TLR7 (Homo sapiens, UniProt Q9NYK1); assay: TLR7 inhibition reporter assay (HEK-Blue cells, SEAP reporter); details: HEK-Blue cells overexpressing human TLR7; stimulated with gardiquimod 7.5 μM; 22 hour incubation; SEAP readout
T2 sequence (Q9NYK1 27-1049): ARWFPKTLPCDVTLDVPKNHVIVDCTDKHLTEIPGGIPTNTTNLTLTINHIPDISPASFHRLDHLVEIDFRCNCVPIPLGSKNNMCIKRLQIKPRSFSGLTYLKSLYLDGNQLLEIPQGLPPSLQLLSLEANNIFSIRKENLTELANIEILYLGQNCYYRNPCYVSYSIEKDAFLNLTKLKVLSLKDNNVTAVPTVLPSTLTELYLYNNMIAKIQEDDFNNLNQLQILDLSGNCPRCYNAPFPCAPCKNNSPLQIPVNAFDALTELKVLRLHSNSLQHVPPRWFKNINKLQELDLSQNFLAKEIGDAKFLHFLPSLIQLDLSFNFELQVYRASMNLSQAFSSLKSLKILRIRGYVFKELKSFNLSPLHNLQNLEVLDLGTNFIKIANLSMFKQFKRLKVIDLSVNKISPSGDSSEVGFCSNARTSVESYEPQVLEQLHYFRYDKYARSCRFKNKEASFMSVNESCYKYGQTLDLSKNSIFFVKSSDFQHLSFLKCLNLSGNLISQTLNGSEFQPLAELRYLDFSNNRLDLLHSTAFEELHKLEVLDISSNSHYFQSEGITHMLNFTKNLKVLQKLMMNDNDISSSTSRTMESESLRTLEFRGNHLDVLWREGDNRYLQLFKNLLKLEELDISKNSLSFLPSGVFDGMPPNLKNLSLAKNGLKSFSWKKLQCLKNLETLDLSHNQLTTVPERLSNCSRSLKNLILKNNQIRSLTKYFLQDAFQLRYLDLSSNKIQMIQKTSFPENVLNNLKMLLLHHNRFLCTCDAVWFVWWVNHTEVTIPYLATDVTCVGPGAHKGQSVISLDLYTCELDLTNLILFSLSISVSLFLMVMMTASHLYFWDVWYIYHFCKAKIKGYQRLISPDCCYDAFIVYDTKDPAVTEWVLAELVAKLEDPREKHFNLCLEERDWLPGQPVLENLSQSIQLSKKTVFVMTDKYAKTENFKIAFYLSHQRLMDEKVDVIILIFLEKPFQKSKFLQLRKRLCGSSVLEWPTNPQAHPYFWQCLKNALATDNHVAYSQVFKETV
How it was run: as §1

human TLR9 = target: T3, human TLR9 (Homo sapiens, UniProt Q9NR96); assay: TLR9 inhibition reporter assay (HEK-Blue cells, SEAP reporter); details: HEK-Blue cells overexpressing human TLR9; stimulated with ODN2006 5 nM; 22 hour incubation; SEAP readout
T3 sequence (Q9NR96 26-1032): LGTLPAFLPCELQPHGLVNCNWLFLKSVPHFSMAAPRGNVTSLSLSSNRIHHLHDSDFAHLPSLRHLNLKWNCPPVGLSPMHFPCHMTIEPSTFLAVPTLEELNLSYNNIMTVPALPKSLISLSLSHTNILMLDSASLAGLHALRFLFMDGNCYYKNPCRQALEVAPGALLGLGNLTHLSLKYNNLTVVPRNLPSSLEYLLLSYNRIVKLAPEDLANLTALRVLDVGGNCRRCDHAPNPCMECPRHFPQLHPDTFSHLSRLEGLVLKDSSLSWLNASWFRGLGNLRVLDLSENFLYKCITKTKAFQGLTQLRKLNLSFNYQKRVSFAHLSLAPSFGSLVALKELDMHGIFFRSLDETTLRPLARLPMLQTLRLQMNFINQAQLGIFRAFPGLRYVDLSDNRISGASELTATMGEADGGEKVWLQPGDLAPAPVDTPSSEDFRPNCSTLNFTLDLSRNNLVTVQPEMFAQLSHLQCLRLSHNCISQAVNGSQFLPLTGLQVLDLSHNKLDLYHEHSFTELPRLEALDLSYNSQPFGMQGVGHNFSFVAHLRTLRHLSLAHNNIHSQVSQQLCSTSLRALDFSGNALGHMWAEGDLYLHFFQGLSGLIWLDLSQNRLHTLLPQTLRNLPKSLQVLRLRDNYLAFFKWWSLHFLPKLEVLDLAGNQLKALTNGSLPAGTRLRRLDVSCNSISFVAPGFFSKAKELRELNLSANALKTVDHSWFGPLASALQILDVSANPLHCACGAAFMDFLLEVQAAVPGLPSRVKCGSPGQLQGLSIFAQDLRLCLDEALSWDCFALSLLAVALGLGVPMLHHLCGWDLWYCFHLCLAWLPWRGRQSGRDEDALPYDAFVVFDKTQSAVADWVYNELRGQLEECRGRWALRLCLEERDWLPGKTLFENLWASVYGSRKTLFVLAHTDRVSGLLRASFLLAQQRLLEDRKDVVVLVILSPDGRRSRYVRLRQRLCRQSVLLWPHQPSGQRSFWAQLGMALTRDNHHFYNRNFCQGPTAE
How it was run: as §1

SMILES	IC50 (human TLR8)	IC50 (human TLR7)	IC50 (human TLR9)
COc1ccc(-c2cn3c(n2)CCC(C2CCN(C4CCN(C(C)C)CC4)CC2)C3)cc1OC (single isomer, unassigned) [Example 35, 2-(3,4-dimethoxyphenyl)-6-(1′-isopropyl-[1,4′-bipiperidin]-4-yl)-5,6,7,8-tetrahydroimidazo[1,2-a]pyridine]	> 50000 nM	13000 nM	42 nM
COc1ccc(-c2cn3cc(C4C[C@H]5CC[C@@H](C4)N5C4CCN(C(C)C)CC4)cc(C)c3n2)cc1OC (mixture of isomers) [Example 30, 2-(3,4-dimethoxyphenyl)-6-(8-(1-isopropylpiperidin-4-yl)-8-azabicyclo[3.2.1]octan-3-yl)-8-methylimidazo[1,2-a]pyridine]	> 50000 nM	1400 nM	37 nM
COc1ccc(-c2cn3c(n2)CC(C2CCN(C4CCN(C(C)C)CC4)CC2)CC3)cc1OC (racemic) [Example 58, 2-(3,4-dimethoxyphenyl)-7-(1′-isopropyl-[1,4′-bipiperidin]-4-yl)-5,6,7,8-tetrahydroimidazo[1,2-a]pyridine]	15000 nM	13000 nM	60 nM
CS(=O)(=O)c1ccc(-c2cn3cc(C4CCN(C5CCN(C6CC6)CC5)CC4)cc(F)c3n2)cc1 [Example 108, 6-(1′-cyclopropyl-[1,4′-bipiperidin]-4-yl)-8-fluoro-2-(4-(methylsulfonyl)phenyl) imidazo[1,2-a]pyridine]	> 50000 nM	29500 nM	313 nM
Cc1cc(C2CCN(C3CCN(C(C)C)CC3)CC2)cn2cc(-c3ccc(S(C)(=O)=O)cc3)nc12 [Example 8, 6-(1′-isopropyl-[1,4′-bipiperidin]-4-yl)-8-methyl-2-(4-(methylsulfonyl)phenyl) imidazo[1,2-a]pyridine]	> 50000 nM	2300 nM	21 nM
Cc1cc(C2CCN(C3CCN(C(C)C)CC3)CC2)cn2nc(-c3ccc(S(C)(=O)=O)cc3)nc12 [Example 162, 6-(1′-isopropyl-[1,4′-bipiperidin]-4-yl)-8-methyl-2-(4-(methylsulfonyl)phenyl)-[1,2,4]triazolo[1,5-a]pyridine]	> 50000 nM	6900 nM	79 nM
COc1ccc(-c2cn3c(n2)CCC(C2CCN(C4CCN(C(=O)C5CC5)CC4)CC2)C3)cc1OC (single isomer, unassigned) [Example 43, cyclopropyl(4-(2-(3,4-dimethoxyphenyl)-5,6,7,8-tetrahydroimidazo[1,2-a]pyridin-6-yl)-[1,4′-bipiperidin]-1′-yl)methanone]	> 50000 nM	45000 nM	375 nM
CS(=O)(=O)c1ccc(-c2cn3cc(C4CCN(C5CCN(C6CCC6)CC5)CC4)cc(F)c3n2)cc1 [Example 110, 6-(1′-cyclobutyl-[1,4′-bipiperidin]-4-yl)-8-fluoro-2-(4-(methylsulfonyl)phenyl) imidazo[1,2-a]pyridine]	> 50000 nM	2400 nM	4.6 nM
COc1ccc(-c2cn3c(n2)CCC(C2CCN(C4CCN(C5CC5)CC4)CC2)C3)cc1OC (single isomer, unassigned) [Example 37, 6-(1′-cyclopropyl-[1,4′-bipiperidin]-4-yl)-2-(3,4-dimethoxyphenyl)-5,6,7,8-tetrahydroimidazo[1,2-a]pyridine]	> 50000 nM	4000 nM	62 nM
CS(=O)(=O)c1ccc(-c2cn3cc(C4CCN(C5CCCN(CC6CC6)CC5)CC4)cc(F)c3n2)cc1 (single isomer, unassigned) [Example 128, 6-(1-(1-(cyclopropylmethyl)azepan-4-yl)piperidin-4-yl)-8-fluoro-2-(4-(methylsulfonyl)phenyl)imidazo[1,2-a]pyridine]	> 50000 nM	2400 nM	8.4 nM
COc1ccc(-c2cn3c(n2)CCC(C2CCN(C4CCN(CC(C)C)CC4)CC2)C3)cc1OC (single isomer, unassigned) [Example 33, 2-(3,4-dimethoxyphenyl)-6-(1′-isobutyl-[1,4′-bipiperidin]-4-yl)-5,6,7,8-tetrahydroimidazo[1,2-a]pyridine]	> 50000 nM	3100 nM	56 nM
CC(C)N1CCCC(N2CCC(c3cc(F)c4nc(-c5ccc(S(C)(=O)=O)cc5)cn4c3)CC2)CC1 (single isomer, unassigned) [Example 71, 8-fluoro-6-(1-(1-isopropylazepan-4-yl)piperidin-4-yl)-2-(4-(methylsulfonyl)phenyl)imidazo[1,2-a]pyridine]	> 50000 nM	3000 nM	39 nM
COc1ccc(-c2cn3c(n2)CC(C2CCN(C4CCN(CC(C)C)CC4)CC2)CC3)cc1OC (racemic) [Example 59, 2-(3,4-dimethoxyphenyl)-7-(1′-isobutyl-[1,4′-bipiperidin]-4-yl)-5,6,7,8-tetrahydroimidazo[1,2-a]pyridine]	> 50000 nM	7700 nM	205 nM
